For the first series, the system named is Heart. The series can be described thus: Positive inotropic activity in Sprague-Dawley rat heart assessed as left ventricular diastolic pressure at 100 umol/L (reference value: -0.04 +/- 0.33 to -0.67 +/- 0.69 mmHg). The series is classed as functional, Heart left ventricle.
Conditions: not given
In the case of `Cc1nc(CO)c(C)nc1CO`, the Activity is listed as -0.34 mmHg.

A further series deals with Heart. The series can be described thus: Positive inotropic activity in Sprague-Dawley rat heart assessed as left ventricular diastolic pressure at 10 umol/L (reference value: -0.04 +/- 0.33 to -0.67 +/- 0.69 mmHg). The series is classed as functional, Heart left ventricle.
Conditions: not given
With `Cc1nc(CO)c(C)nc1CO`, the Activity was -0.19 mmHg.

Another series relates to Heart. The series can be described thus: Positive inotropic activity in Sprague-Dawley rat heart assessed as left ventricular diastolic pressure at 1 umol/L (reference value: -0.04 +/- 0.33 to -0.67 +/- 0.69 mmHg). The series is classed as functional, Heart left ventricle.
Conditions: not given
With `Cc1nc(CO)c(C)nc1CO`, the Activity was 0 mmHg.

The next series has as its system Heart. The series can be described thus: Positive inotropic activity in Sprague-Dawley rat heart assessed as increase in peak decrease rate of left ventricular pressure at 1 uM relative to control. In kind it is functional, Heart left ventricle. More on the design: scale not given: the % may be the effect or the level left.
Conditions: not given
For `Cc1nc(CO)c(C)nc1CO`, the Activity is 10.38%.

The subject of a further series is Heart. The series can be described thus: Positive inotropic activity in Sprague-Dawley rat heart assessed as increase in peak rise of left ventricular pressure at 100 uM relative to control. The series is classed as functional, Heart left ventricle.
Conditions: not given
`Cc1nc(CO)c(C)nc1CO`: the Activity is 23.9%.

The subject of the next series is Heart. The series can be described thus: Positive inotropic activity in Sprague-Dawley rat heart assessed as increase in peak rise of left ventricular pressure at 10 uM relative to control. In kind it is functional, Heart left ventricle.
Conditions: not given
`Cc1nc(CO)c(C)nc1CO`: the Activity stood at 14.75%.

The next series concerns Heart. The series can be described thus: Positive inotropic activity in Sprague-Dawley rat heart assessed as increase in peak rise of left ventricular pressure at 1 uM relative to control.
Conditions: not given
The series is classed as functional, Heart left ventricle.
Regarding `Cc1nc(CO)c(C)nc1CO`, the Activity came out at 4.23%.

For another series, the system named is Heart. The series can be described thus: Positive inotropic activity in Sprague-Dawley rat heart assessed as increase in left ventricular systolic pressure at 100 uM relative to control.
Conditions: not given
The series is classed as functional, Heart left ventricle.
`Cc1nc(CO)c(C)nc1CO`: the Activity stood at 59.4%.

For another series, the system named is Heart. The series can be described thus: Positive inotropic activity in Sprague-Dawley rat heart assessed as increase in left ventricular systolic pressure at 10 uM relative to control. The series is classed as functional, Heart left ventricle.
Conditions: not given
As to `Cc1nc(CO)c(C)nc1CO`, the Activity was determined as 32.96%.

A further series concerns Heart. The series can be described thus: Positive inotropic activity in Sprague-Dawley rat heart assessed as increase in left ventricular systolic pressure at 1 uM relative to control. The series is classed as functional, Heart left ventricle.
Conditions: not given
Consider `Cc1nc(CO)c(C)nc1CO`, for which the Activity was 17.65%.

Tested on in another series: not listed separately
The series can be described thus: Retention time of the compound by HPLC- MS/MS analysis. In kind it is physicochemical.
Conditions: not given
The compound `CC(=O)NC(CSCc1nc(C)c(CO)nc1C)C(=O)O` (stereo in doubt) showed a Retention_time of 5.709 min.

With `Cc1nc(CSCC(N)C(=O)O)c(C)nc1CO` (stereo in doubt), the Retention_time turned out to be 2.988 min.

For the compound `Cc1nc(CO[C@@H]2O[C@H](C(=O)O)[C@@H](O)[C@H](O)[C@H]2O)c(C)nc1CO` (stereo in doubt), the Retention_time stood at 6.71 min.

Another series deals with Heart. The series can be described thus: Positive inotropic activity in Sprague-Dawley rat heart assessed as heart rate at 1 umol/L (reference value: 218.67 +/- 20.62 to 260 +/- 21.81 bpm). The series is classed as functional.
Conditions: not given
In the case of `Cc1nc(CO)c(C)nc1CO`, the Activity was 239.06 bpm.

For another series, the system named is Heart. The series can be described thus: Positive inotropic activity in Sprague-Dawley rat heart assessed as heart rate at 10 umol/L (reference value: 218.67 +/- 20.62 to 260 +/- 21.81 bpm).
Conditions: not given
The series is classed as functional.
With `Cc1nc(CO)c(C)nc1CO`, the Activity stood at 245.44 bpm.

The test system of the next series is Heart. The series can be described thus: Positive inotropic activity in Sprague-Dawley rat heart assessed as heart rate at 100 umol/L (reference value: 218.67 +/- 20.62 to 260 +/- 21.81 bpm). In kind it is functional.
Conditions: not given
Turning to `Cc1nc(CO)c(C)nc1CO`, the Activity is reported as 238.5 bpm.

A further series deals with Heart. The series can be described thus: Positive inotropic activity in Sprague-Dawley rat heart assessed as increase in peak decrease rate of left ventricular pressure at 10 uM relative to control. In kind it is functional, Heart left ventricle. The arrangement: scale not given: the % may be the effect or the level left.
Conditions: not given
As to `Cc1nc(CO)c(C)nc1CO`, the Activity was 24.95%.

A further series deals with Heart. The series can be described thus: Positive inotropic activity in Sprague-Dawley rat heart assessed as increase in peak decrease rate of left ventricular pressure at 100 uM relative to control. The arrangement: scale not given: the % may be the effect or the level left.
Conditions: not given
In kind it is functional, Heart left ventricle.
Consider `Cc1nc(CO)c(C)nc1CO`, for which the Activity amounted to 47.83%.

For another series, the system named is Heart. The series can be described thus: Positive inotropic activity in Sprague-Dawley rat heart assessed as left ventricular systolic pressure. The series is classed as functional, tissue-based. Conditions: Heart left ventricle.
Consider `Cc1nc(CO)c(C)nc1CO`, for which the Activity result is “Dose-dependent effect”.

The next series deals with Heart. The series can be described thus: Positive inotropic activity in Sprague-Dawley rat heart assessed as +dP/dtmax. The series is classed as functional, tissue-based.
Conditions: not given
Turning to `Cc1nc(CO)c(C)nc1CO`, the Activity result is “Dose-dependent effect”.

A further series concerns Heart. The series can be described thus: Toxicity in Sprague-Dawley rat heart assessed as arrhythmias. Conditions: in vivo.
Take `Cc1nc(CO)c(C)nc1CO`: the Activity result was “Non-toxic”.

In the next series the test system is Heart. The series can be described thus: Positive inotropic activity in Sprague-Dawley rat heart assessed as -dP/dtmax. In kind it is functional, tissue-based.
Conditions: not given
For the compound `Cc1nc(CO)c(C)nc1CO`, the Activity entry was “Dose-dependent effect”.

The values above are taken from ChEMBL document CHEMBL3751747, “Synthesis and positive inotropic activity evaluation of liguzinediol metabolites” (Bioorg Med Chem Lett, 2016).
